Legend:
[1] = target: T1, Prostaglandin E2 receptor EP1 subtype (Homo sapiens, UniProt P34995); assay: Displacement of [3H]-PGE2 from human EP1 receptor expressed in recombinant HEK293 cell membranes after 90 mins by topcount scintillation counting analysis
T1 sequence (P34995 whole entry): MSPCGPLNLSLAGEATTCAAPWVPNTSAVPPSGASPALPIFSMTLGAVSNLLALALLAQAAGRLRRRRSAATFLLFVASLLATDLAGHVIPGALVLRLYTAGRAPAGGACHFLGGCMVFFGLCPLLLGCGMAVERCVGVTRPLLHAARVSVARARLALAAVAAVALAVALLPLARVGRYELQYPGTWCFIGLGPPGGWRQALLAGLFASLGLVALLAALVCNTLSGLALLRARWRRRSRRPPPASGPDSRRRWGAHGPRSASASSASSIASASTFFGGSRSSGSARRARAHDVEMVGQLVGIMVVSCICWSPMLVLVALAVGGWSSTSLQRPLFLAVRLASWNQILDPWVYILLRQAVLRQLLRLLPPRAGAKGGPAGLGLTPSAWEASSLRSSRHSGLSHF

[2] = target: T2, Prostaglandin E2 receptor EP3 subtype (Homo sapiens, UniProt P43115); assay: Displacement of [3H]-PGE2 from human EP3 receptor expressed in HEK293 cell membranes after 90 mins by topcount scintillation counting analysis
T2 sequence (P43115 whole entry): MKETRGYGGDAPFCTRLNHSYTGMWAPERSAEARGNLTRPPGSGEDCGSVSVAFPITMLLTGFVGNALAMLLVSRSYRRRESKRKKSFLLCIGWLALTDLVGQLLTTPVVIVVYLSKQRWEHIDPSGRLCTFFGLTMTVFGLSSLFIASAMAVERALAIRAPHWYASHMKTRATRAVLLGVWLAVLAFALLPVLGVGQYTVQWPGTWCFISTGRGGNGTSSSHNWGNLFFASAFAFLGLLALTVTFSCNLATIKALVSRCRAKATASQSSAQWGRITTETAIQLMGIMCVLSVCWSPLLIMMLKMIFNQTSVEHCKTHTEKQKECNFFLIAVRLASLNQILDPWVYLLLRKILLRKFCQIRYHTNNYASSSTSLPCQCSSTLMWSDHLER

- Ki [1]: > 17.5 µM
- Ki [2]: > 14 µM
SMILES: C[C@H](NC(=O)[C@H]1CCCCN1CCOc1ccccc1)c1ccc(C(=O)O)cc1

Source: ChEMBL document CHEMBL3112423, “Selective EP4 Antagonist May Be Useful in Treating Arthritis and Arthritic Pain” (ACS Med Chem Lett, 2014)
